Laboratory results as given in patent US20260223843A1, “I[…]” (FYTEKO SA, priority 2022, published 2026).

Legend:
Assay type in all cases: in vivo
[1] = Insecticide uptake by leaves of rice plants (LC-MS/MS); details: chlorantraniliprole in rice leaves 72 h after smearing 5 mL; chlorantraniliprole 100 μg/mL, polyferulate 25 μg/mL where present; three replicates
Protocol: Rice plants were cultivated in a plant growth chamber with a 12 h day and high intensity lighting. The rice leaves near the roots were smeared with 5 mL of solution containing chlorantraniliprole (100 μg·mL−1) or chlorantraniliprole (100 μg·mL−1) and polyferulate solution (25 μg·mL−1) and covered. When the droplets on the leaves were dried, the plastic was taken away. The rice leaves were harvested 72 h after treated. A sample of the rice leaves (5 g) was weighted and extracted with acetonitrile and the content of uptake chlorantraniliprole determinate by LC-MS/MS. Each experiment was repeated for three replicates.

[2] = test system: brown plant hopper (Nilaparvata lugens); test: Control of the brown plant hopper in rice plants (spray, mortality); details: mortality of hopper larvae on sprayed rice plants; mg/L: Polyferulate 48, Chlorantraniliprole 45, Cyantraniliprole 135, combinations 48 + 45 and 48 + 135
Protocol: To determine the efficacy of insecticides on the mortality percentage of brown planthopper an experiment was conducted in the laboratory. The seedlings of 30-40 days old rice plant (Oryza sativa) were transplanted in plastic pot. The rice plants were grown in plastic pots with Mylar film cage and kept in the laboratory. Rice plants are sprayed with the preparation of the active compound at the desired concentration and are infested with larvae of the brown plant hopper (Nilaparvata lugens) while the rice leaves are still moist. Ten brown planthopper were released in each pot that was selected randomly.
The brown planthopper (BPH), Nilaparvata lugens (Hemiptera: Delphacidae) is a planthopper species that feeds on rice plants (Oryza sativa L.). These insects are among the most important pests of rice, which is the major staple crop for about half the world's population. After 3 days, the mortality in percentage is determined. 100% means that all the hopper larvae have been killed; 0% means that none of the hopper larvae have been killed.

[3] = test system: whitefly (Bemisia tabaci); test: Control of whitefly in cotton plants (translaminar efficacy); details: 2nd instar nymphs on cotton leaf, adults counted, mg/L: Polyferulate 4, Spirotetramat 18.6, Imidacloprid 21.8, combinations 4 + 18.6 and 4 + 21.8
Protocol: Three-week-old cotton plants were defoliated so that only one true leaf remained. 20-30 female adults of B. tabaci were clipped to the underside of the leaf for egg deposition and removed after 16 h. The silverleaf whitefly (Bemisia tabaci, also informally referred to as the sweet potato whitefly) is one of several species of whitefly that are currently important agricultural pests.
Once the 2nd instar nymphs had settled the upper side of the leaf was sprayed using a TLC spraying device (Merck Inc.). Before spraying the number of nymphs was counted on each leaf. The application volume was 500 μL of tested insecticides solutions diluted in tap water. The final concentration of each component appears in the table. Translaminar efficacy was evaluated by counting adults 10 days after application.

Compound | Content of insecticide in the plant material [1] [µg/g] | Observed efficacy (%) 3 days after treatment [2] [%] | Observed efficacy (%) 10 days after treatment [3] [%]
CNC(=O)c1cc(Cl)cc(C)c1NC(=O)c1cc(Br)nn1-c1ncccc1Cl [Chlorantraniliprole] | 38.0 ± 0.3 | 50 | –
CNC(=O)c1cc(C#N)cc(C)c1NC(=O)c1cc(Br)nn1-c1ncccc1Cl [Cyantraniliprole] | – | 30 | –
O=[N+]([O-])NC1=NCCN1Cc1ccc(Cl)nc1 [Imidacloprid] | – | – | 45
CCOC(=O)OC1=C(c2cc(C)ccc2C)C(=O)N[C@]12CC[C@@H](OC)CC2 [Spirotetramat] | – | – | 75
